For this assay, the system named is clot lysis (fibrinolysis) in diluted human citrated plasma, tPA-induced. Briefly: Plasma-based clot lysis assay (5%). Format: biochemical. To be noted: human citrated platelet-poor plasma 5%, fibrinogen 3 μM, CaCl2 10 mM, tPA 0.2 nM, 37° C., OD at 405 nm. As for the experimental part: B-2. Plasma-based Clot Lysis Assay (5%)
The clot-lysis test system configures the kinetics of clot formation and degradation in vitro and allows quantifying modulation of the process by selected test compounds.
The test compounds were dissolved in 1% acetic acid and further complemented with an equal volume of DMSO. The resulting stock solutions were serially diluted in 0.5% acetic acid/50% DMSO. 1 μL aliquots of these solutions were placed into 384 well microplates (Greiner, black, transparent bottom), followed by 30 μL of diluted human citrated plasma (platelet-poor, final concentration: 5%; supplemented with fibrinogen, final concentration: 3 μM; dilution buffer: 20 mM HEPES, 150 mM NaCl, 0.01% Brij (pH 7)). The reactions were started by addition of 20 μL of CaCl2 (final concentration: 10 mM), and tPA (tissue plasminogen activator, final concentration: 0.2 nM) in dilution buffer, followed by an additional volume of 20 μL dilution buffer for improved mixing. The reactions were incubated at 37° C. […] IC50 values were determined by comparing the resulting time courses with the time course of a blank control reaction.

Counter-ions that a name gives are not always drawn.

Broadly, the IC50 is the concentration at which inhibition is half-maximal. Read a high IC50 as weaker potency in that assay.

In turn, `N#Cc1ccc(-c2cnn3c(C4CCNCC4)cc(=O)[nH]c23)cc1` [Example 47, 4-[5-Oxo-7-(piperidin-4-yl)-4,5-dihydropyrazolo[1,5-a]pyrimidin-3-yl]benzonitrile trifluoroacetate] returned an IC50 of 13 nM. This lies in the double-digit nanomolar range.

Turning to `O=c1cc(C2CCNCC2)n2ncc(-c3cccc(Cl)c3)c2[nH]1` [Example 48, 3-(3-Chlorophenyl)-7-(piperidin-4-yl)pyrazolo[1,5-a]pyrimidin-5(4H)-one hydrochloride], the IC50 was determined as 14 nM.

`N#Cc1ccccc1-c1cnn2c(C3CCNCC3)cc(=O)[nH]c12` [Example 49, 2-[5-Oxo-7-(piperidin-4-yl)-4,5-dihydropyrazolo[1,5-a]pyrimidin-3-yl]benzonitrile trifluoroacetate] came in with an IC50 of 16 nM.

Regarding `N#Cc1cccc(-c2cnn3c(C4CCNCC4)cc(=O)[nH]c23)c1` [Example 50, 3-[5-Oxo-7-(piperidin-4-yl)-4,5-dihydropyrazolo[1,5-a]pyrimidin-3-yl]benzonitrile trifluoroacetate], it took 24 nM to reach half-maximal inhibition (IC50).

The compound `C[C@H]1C[C@H](c2cc(=O)[nH]c3c(C(N)=O)cnn23)CCN1` [Example 51, (−)-trans-7-(2-Methylpiperidin-4-yl)-5-oxo-4,5-dihydropyrazolo[1,5-a]pyrimidine-3-carboxamide trifluoroacetate] had an IC50 of 16 nM. This IC50 is about 1.5-fold lower than that of the compound before.

In turn, `COc1ccc(-c2cnn3c(C4CCNCC4)cc(=O)[nH]c23)cc1` [Example 53, 3-(4-Methoxyphenyl)-7-(piperidin-4-yl)pyrazolo[1,5-a]pyrimidin-5(4H)-one hydrochloride] had an IC50 of 15 nM.

With `COc1ccc(-c2cnn3c(C4CCNCC4)cc(=O)[nH]c23)cc1OC` [Example 54, 3-(3,4-Dimethoxyphenyl)-7-(piperidin-4-yl)pyrazolo[1,5-a]pyrimidin-5(4H)-one hydrochloride], half-maximal inhibition (IC50) required 18 nM.

As to `CS(=O)(=O)c1ccc(-c2cnn3c(C4CCNCC4)cc(=O)[nH]c23)cc1` [Example 55, 3-[4-(Methylsulfonyl)phenyl]-7-(piperidin-4-yl)pyrazolo[1,5-a]pyrimidin-5(4H)-one hydrochloride], the IC50 stood at 19 nM.

`O=c1cc(C2CCNCC2)n2ncc(-c3ccccc3F)c2[nH]1` [Example 56, 3-(2-Fluorophenyl)-7-(piperidin-4-yl)pyrazolo[1,5-a]pyrimidin-5(4H)-one hydrochloride] displayed an IC50 of 770 nM.

On to `O=c1cc(C2CCNCC2)n2ncc(-c3ccc(C(F)(F)F)cc3)c2[nH]1` [Example 57, 7-(Piperidin-4-yl)-3-[4-(trifluoromethyl)phenyl]pyrazolo[1,5-a]pyrimidin-5(4H)-one hydrochloride], for which the IC50 was found to be 21 nM.

For `O=c1cc(C2CCNCC2)n2ncc(-c3cccc(C(F)(F)F)c3)c2[nH]1` [Example 58, 7-(Piperidin-4-yl)-3-[3-(trifluoromethyl)phenyl]pyrazolo[1,5-a]pyrimidin-5(4H)-one hydrochloride], the IC50 worked out at 16 nM.

`O=c1cc(C2CCNCC2)n2ncc(-c3cccs3)c2[nH]1` [Example 59, 7-(Piperidin-4-yl)-3-(2-thienyl)pyrazolo[1,5-a]pyrimidin-5(4H)-one hydrochloride] came in with an IC50 of 15 nM.

`COc1cccc(-c2cnn3c(C4CCNCC4)cc(=O)[nH]c23)c1` [Example 60, 3-(3-Methoxyphenyl)-7-(piperidin-4-yl)pyrazolo[1,5-a]pyrimidin-5(4H)-one hydrochloride] gave an IC50 of 13 nM. This IC50 and that of the compound before are within 1.5-fold of each other.

Take `O=c1cc(C2CCNCC2)n2ncc(-c3ccc4c(c3)OCCO4)c2[nH]1` [Example 61, 3-(2,3-Dihydro-1,4-benzodioxin-6-yl)-7-(piperidin-4-yl)pyrazolo[1,5-a]pyrimidin-5 (4H)-one hydrochloride]: the IC50 is 34 nM.

The compound `COc1ccc(OC)c(-c2cnn3c(C4CCNCC4)cc(=O)[nH]c23)c1` [Example 62, 3-(2,5-Dimethoxyphenyl)-7-(piperidin-4-yl)pyrazolo[1,5-a]pyrimidin-5(4H)-one hydrochloride] had an IC50 of 34 nM. This lies in the double-digit nanomolar range.

In turn, `O=c1cc(C2CCNCC2)n2ncc(-c3ccccc3C(F)(F)F)c2[nH]1` [Example 63, 7-(Piperidin-4-yl)-3-[2-(trifluoromethyl)phenyl]pyrazolo[1,5-a]pyrimidin-5(4H)-one hydrochloride] came in with an IC50 of 40 nM.

`C[C@H]1C[C@H](c2cc(=O)[nH]c3c(C#N)cnn23)CCN1` [Example 65, (−)-trans-7-(2-Methylpiperidin-4-yl)-5-oxo-4,5-dihydropyrazolo[1,5-a]pyrimidine-3-carbonitrile trifluoroacetate]: the IC50 is 12 nM.

`N#Cc1csc(-c2cnn3c(C4CCNCC4)cc(=O)[nH]c23)c1` [Example 68, 5-[5-Oxo-7-(piperidin-4-yl)-4,5-dihydropyrazolo[1,5-a]pyrimidin-3-yl]thiophene-3-carbonitrile trifluoroacetate] displayed an IC50 of 11 nM.

With `COc1ccc(-c2cnn3c(C4CCNCC4)cc(=O)[nH]c23)cn1` [Example 69, 3-(6-Methoxypyridin-3-yl)-7-(piperidin-4-yl)pyrazolo[1,5-a]pyrimidin-5 (4H)-one], the IC50 came out at 19 nM.

In the case of `O=c1cc(C2CCNCC2)n2ncc(-c3cccc(OC(F)(F)F)c3)c2[nH]1` [Example 70, 7-(Piperidin-4-yl)-3-[3-(trifluoromethoxy)phenyl]pyrazolo[1,5-a]pyrimidin-5(4H)-one hydrochloride], the IC50 is 14 nM.

For `O=c1cc(C2CCNCC2)n2ncc(-c3ccccc3OC(F)(F)F)c2[nH]1` [Example 71, 7-(Piperidin-4-yl)-3-[2-(trifluoromethoxy)phenyl]pyrazolo[1,5-a]pyrimidin-5(4H)-one hydrochloride], the midpoint of inhibition, the IC50, lay at 34 nM.

`O=c1cc(C2CCNCC2)n2ncc(-c3ccc(F)c(Cl)c3)c2[nH]1` [Example 72, 3-(3-Chloro-4-fluorophenyl)-7-(piperidin-4-yl)pyrazolo[1,5-a]pyrimidin-5(4H)-one hydrochloride] came in with an IC50 of 64 nM. This IC50 lies about 1.9-fold higher than the previous one.

In turn, `O=c1cc(C2CCNCC2)n2ncc(S(=O)(=O)c3ccc(Cl)cc3Cl)c2[nH]1` [Example 74, 3-[(2,4-Dichlorophenyl)sulfonyl]-7-(piperidin-4-yl)pyrazolo[1,5-a]pyrimidin-5(4H)-one hydrochloride] showed an IC50 of 18 nM. Against the preceding compound, the IC50 is about 3.6-fold lower.

In turn, `O=C(Nc1cccc2ccccc12)c1cnn2c(C3CCNCC3)cc(=O)[nH]c12` [Example 75, N-(naphthalen-1-yl)-5-oxo-7-(piperidin-4-yl)-4,5-dihydropyrazolo[1,5-a]pyrimidine-3-carboxamide] displayed an IC50 of 40 nM.

For `Cc1ccc(F)cc1NC(=O)c1cnn2c(C3CCNCC3)cc(=O)[nH]c12` [Example 76, N-(5-fluoro-2-methylphenyl)-5-oxo-7-(piperidin-4-yl)-4,5-dihydropyrazolo[1,5-a]pyrimidine-3-carboxamide], inhibition was half-maximal at 29 nM (IC50).

Turning to `O=C(NCC1CCCC1)c1cnn2c(C3CCNCC3)cc(=O)[nH]c12` [Example 77], the IC50 came to 62 nM.

In the case of `CN(CC1CC1)C(=O)c1cnn2c(C3CCNCC3)cc(=O)[nH]c12` [Example 78, N-(cyclopropylmethyl)-N-methyl-5-oxo-7-(piperidin-4-yl)-4,5-dihydropyrazolo[1,5-a]pyrimidine-3-carboxamide], the IC50 amounted to 48 nM.

For `CCc1cccc(NC(=O)c2cnn3c(C4CCNCC4)cc(=O)[nH]c23)c1` [Example 80, N-(3-ethylphenyl)-5-oxo-7-(piperidin-4-yl)-4,5-dihydropyrazolo[1,5-a]pyrimidine-3-carboxamide], 33 nM corresponded to half-maximal inhibition (IC50). The IC50 values of the last two compounds are within 1.5-fold of each other.

On to `Cc1cc(F)ccc1NC(=O)c1cnn2c(C3CCNCC3)cc(=O)[nH]c12` [Example 81, N-(4-fluoro-2-methylphenyl)-5-oxo-7-(piperidin-4-yl)-4,5-dihydropyrazolo[1,5-a]pyrimidine-3-carboxamide], for which 81 nM corresponded to half-maximal inhibition (IC50).

Take `Cc1ccc(NC(=O)c2cnn3c(C4CCNCC4)cc(=O)[nH]c23)cc1C` [Example 85, N-(3,4-dimethylphenyl)-5-oxo-7-(piperidin-4-yl)-4,5-dihydropyrazolo[1,5-a]pyrimidine-3-carboxamide hydrochloride]: 32 nM corresponded to half-maximal inhibition (IC50).

The compound `Cc1ccccc1CNC(=O)c1cnn2c(C3CCNCC3)cc(=O)[nH]c12` [Example 86, N-(2-methylbenzyl)-5-oxo-7-(piperidin-4-yl)-4,5-dihydropyrazolo[1,5-a]pyrimidine-3-carboxamide hydrochloride] gave an IC50 of 17 nM. This IC50 lies about 1.9-fold lower than the previous one.

Turning to `O=C(Nc1cccc(Cl)c1F)c1cnn2c(C3CCNCC3)cc(=O)[nH]c12` [Example 87, N-(3-chloro-2-fluorophenyl)-5-oxo-7-(piperidin-4-yl)-4,5-dihydropyrazolo[1,5-a]pyrimidine-3-carboxamide hydrochloride], the IC50 came to 30 nM.

As for `COCCCNC(=O)c1cnn2c(C3CCNCC3)cc(=O)[nH]c12` [Example 88, N-(3-methoxypropyl)-5-oxo-7-(piperidin-4-yl)-4,5-dihydropyrazolo[1,5-a]pyrimidine-3-carboxamide hydrochloride], the IC50 stood at 49 nM.

The compound `NC(=O)CCNC(=O)c1cnn2c(C3CCNCC3)cc(=O)[nH]c12` [Example 89, N-(3-amino-3-oxopropyl)-5-oxo-7-(piperidin-4-yl)-4,5-dihydropyrazolo[1,5-a]pyrimidine-3-carboxamide hydrochloride] had a 50% inhibitory concentration (IC50) of 140 nM. Compared with the last compound, the IC50 is about 2.9-fold higher.

These data come from patent US10118930B2, “Piperidinylpyrazolopyrimidinones and their use” (BAYER PHARMA AKTIENGESELLSCHAFT, priority 2015, dated 2018).
